In patent US20230017045A1, “PYRIDINE AND PYRIMIDINE CARBOXYLATE HERBICIDES AND METHODS OF USE THEREOF” (Dow AgroSciences LLC, priority 2017, published 2023) one finds pest or weed control data, which are given here for seven compounds.

Like-named read-outs stand apart in the source and are kept apart here.

In this test the test system is test plant species. In words: Post-emergent herbicidal activity test (greenhouse, foliar spray, visual growth reduction). The class given is in vivo. The following applies: post-emergence, 336 h, 140 g ai/ha. As to the method: Post-emergent Test: Seeds or nutlets of the desired test plant species were planted in Sun Gro Metro-Mix® 360 planting mixture, which typically has a pH of 6.0 to 6.8 and an organic matter content of about 30 percent, in plastic pots with a surface area of 64 square centimeters. In some aspects, to ensure good germination and healthy plants, a fungicide treatment and/or other chemical or physical treatment was applied. The plants were grown for 7-21 d in a greenhouse with an approximate 15 h photoperiod which was maintained at 23-29° C. during the day and 22-28° C. during the night. Nutrients and water were added on a regular basis and supplemental lighting was provided with overhead metal halide 1000-Watt lamps as necessary. Plants were used for testing when they reached the first or second true leaf stage. A weighed amount, determined by the highest rate to be tested, of each test compound was placed in a 25 mL glass vial and was dissolved in 4 mL of a 97:3 v/v mixture of acetone and DMSO to obtain concentrated stock solutions. […] The concentrated stock solutions obtained were diluted with 20 mL of an aqueous mixture containing acetone, water, isopropyl alcohol, DMSO, […] crop oil concentrate, and X-77 surfactant in a 48.5:39:10:1.5:1.0:0.02 v/v ratio to obtain spray solutions containing the application rate. Compound requirements are based upon a 12 mL application volume at a rate of 187 liters per hectare (L/ha). Formulated compounds were applied to the plant material with an overhead Mandel track sprayer equipped with […] nozzles calibrated to deliver 187 L/ha over an application area of 0.64 square meters at a spray height of 18 inches (43 cm) above the average plant canopy height. Control plants were sprayed in the same manner with the solvent blank. The treated plants and control plants were placed in a greenhouse as described above and watered by subirrigation to prevent wash-off of the test compounds. After 14 d, the condition of the test plants as compared with that of the nontreated and control plants was determined visually and scored on a scale of 0 to 100 percent where 0 corresponds to no injury and 100 corresponds to complete control. In the reporting of the results, Table A: Percent Growth Reduction Conversion Table was used.

Where [1] appears, read: ALOMY: blackgrass (Alopecurus myosuroides), 14 days after application, read-out: Visual Growth Reduction (%) 14 Days After Application, ALOMY.
[2] abbreviates: AMARE: redroot pigweed (Amaranthus retroflexus), 14 days after application, read-out: Visual Growth Reduction (%) 14 Days After Application, AMARE.
[3] abbreviates: AVEFA: wild oat (Avena fatua), 14 days after application, read-out: Visual Growth Reduction (%) 14 Days After Application, AVEFA.
[4] abbreviates: CHEAL: lambsquarters (Chenopodium album), 14 days after application, read-out: Visual Growth Reduction (%) 14 Days After Application, CHEAL.
Where [5] appears, read: CIRAR: canada thistle (Cirsium arvense), 14 days after application, read-out: Visual Growth Reduction (%) 14 Days After Application, CIRAR.
Setting [6] is: CYPES: yellow nutsedge (Cyperus esculentus), 14 days after application, read-out: Visual Growth Reduction (%) 14 Days After Application, CYPES.
Where [7] appears, read: DIGSA: crabgrass (Digitaria sanguinalis), 14 days after application, read-out: Visual Growth Reduction (%) 14 Days After Application, DIGSA.
[8] abbreviates: barnyardgrass (Echinochloa crus-galli), 14 Days After Application, read-out: Visual Growth Reduction (%) ECHCG.
Setting [9] is: common chickweed (Stellaria media), 14 Days After Application, read-out: Visual Growth Reduction (%) STEME.
[10] abbreviates: giant foxtail (Setaria faberi), 14 Days After Application, read-out: Visual Growth Reduction (%) SETFA.
Setting [11] is: ivy-leaf morning glory (Ipomoea hederacea), 14 Days After Application, read-out: Visual Growth Reduction (%) IPOHE.
[12] abbreviates: johnsongrass (Sorghum vulgare), 14 Days After Application, read-out: Visual Growth Reduction (%) SORVU.
Where [13] appears, read: kochia (Bassia scoparia), 14 Days After Application, read-out: Visual Growth Reduction (%) KCHSC.
[14] abbreviates: rice (Oryza sativa), 14 Days After Application, read-out: Visual Growth Reduction (%) ORYSA.
[15] abbreviates: wheat, spring (Triticum aestivum), 14 Days After Application, read-out: Visual Growth Reduction (%) TRZAS.

For the compound `COC(=O)c1nc(-c2ccc(C(C)O)cc2Cl)ccc1Cl` (centres unmarked) [F1, methyl 3-chloro-6-(2-chloro-4-(1-hydroxyethyl)phenyl)picolinate], the pest or weed control at 140 g/ha lay in the range of 0 to 29% under setting [1]; 0 to 29% under setting [2]; 0 to 29% under setting [3]; 0 to 29% under setting [4]; 0 to 29% under setting [5]; 45 to 59% under setting [6]. The pest or weed control at 140 g/ha under setting [7] is 0 to 29%; the pest or weed control at 140 g/ha under setting [8] was 0 to 29%; the pest or weed control at 140 g/ha under setting [9] was 0 to 29%; the pest or weed control at 140 g/ha under setting [10] fell in the range of 0 to 29%; the pest or weed control at 140 g/ha under setting [11] fell in the range of 0 to 29%; the pest or weed control at 140 g/ha under setting [12] was 0 to 29%. Further, the pest or weed control at 140 g/ha is, setting by setting: under setting [13], 0 to 29%; under setting [14], 0 to 29%; under setting [15], 0 to 29%.
As to `COC(=O)c1nc(-c2ccc(C(F)(F)F)cc2Cl)ccc1OC` [F2, Methyl 6-(2-chloro-4-4-(trifluoromethyl)phenyl)-3-methoxypicolinate], the pest or weed control at 140 g/ha is, setting by setting: under setting [1], 0 to 29%; under setting [2], 60 to 74%; under setting [3], 0 to 29%; under setting [4], 0 to 29%; under setting [5], 0 to 29%; under setting [6], 0 to 29%. Besides, the pest or weed control at 140 g/ha under setting [7] lay within 85 to 94%; the pest or weed control at 140 g/ha under setting [8] was 60 to 74%; the pest or weed control at 140 g/ha under setting [9] fell in the range of 0 to 29%; the pest or weed control at 140 g/ha under setting [10] lay within 30 to 44%; the pest or weed control at 140 g/ha under setting [11] was 85 to 94%; the pest or weed control at 140 g/ha under setting [12] lay within 95 to 100%. Besides, the pest or weed control at 140 g/ha by setting is: under setting [13], 0 to 29%; under setting [14], 0 to 29%; under setting [15], 45 to 59%.
As for `COC(=O)c1nc(-c2ccc(C(F)(F)F)cc2Cl)c(C#N)cc1Cl` [F3, Methyl 3-chloro-6-(2-chloro-4-(trifluoromethyl)phenyl)-5-cyanopicolinate], the pest or weed control at 140 g/ha reads like this: under setting [1], 0 to 29%; under setting [2], 0 to 29%; under setting [3], 0 to 29%; under setting [4], 75 to 84%; under setting [5], 0 to 29%; under setting [6], 0 to 29%. The pest or weed control at 140 g/ha was 60 to 74% under setting [7]; 0 to 29% under setting [8]; 0 to 29% under setting [9]; 0 to 29% under setting [10]; 60 to 74% under setting [11]; 0 to 29% under setting [12]. The pest or weed control at 140 g/ha lay in the range of 0 to 29% under setting [13], 0 to 29% under setting [14] and 0 to 29% under setting [15].
For `C#Cc1cc(Cl)c(C(=O)OC)nc1-c1ccc(C(F)(F)F)cc1Cl` [F4, Methyl 3-chloro-6-(2-chloro-4-(trifluoromethyl)phenyl)-5-ethynylpicolinate], the pest or weed control at 140 g/ha reads like this: under setting [1], 0 to 29%; under setting [2], 0 to 29%; under setting [3], 0 to 29%; under setting [4], 85 to 94%; under setting [5], 75 to 84%; under setting [6], 0 to 29%. Besides, the pest or weed control at 140 g/ha reads like this: under setting [7], 0 to 29%; under setting [8], 0 to 29%; under setting [9], 0 to 29%; under setting [10], 0 to 29%; under setting [11], 60 to 74%; under setting [12], 30 to 44%. Besides, the pest or weed control at 140 g/ha runs as follows: under setting [13], 0 to 29%; under setting [14], 0 to 29%; under setting [15], 0 to 29%.
As to `COC(=O)c1nc(-c2ccc(C(F)(F)F)cc2Cl)c(C)cc1Cl` [F5], the pest or weed control at 140 g/ha under setting [1] was in the range of 0 to 29%; the pest or weed control at 140 g/ha under setting [2] was 0 to 29%; the pest or weed control at 140 g/ha under setting [3] is 0 to 29%; the pest or weed control at 140 g/ha under setting [4] is 45 to 59%; the pest or weed control at 140 g/ha under setting [5] was in the range of 0 to 29%; the pest or weed control at 140 g/ha under setting [6] lay within 30 to 44%. Moreover, the pest or weed control at 140 g/ha reads like this: under setting [7], 0 to 29%; under setting [8], 0 to 29%; under setting [10], 0 to 29%; under setting [11], 30 to 44%; under setting [12], 30 to 44%; under setting [13], 30 to 44%. Moreover, the pest or weed control at 140 g/ha is, setting by setting: under setting [14], 0 to 29%; under setting [15], 0 to 29%.
In the case of `COC(=O)c1nc(-c2ccc(C(F)(F)F)cc2Cl)c(I)cc1Cl` [F6, Methyl 3-chloro-6-(2-chloro-4-(trifluoromethyl)phenyl)-5-iodopicolinate], the pest or weed control at 140 g/ha lay within 0 to 29% under setting [1]; 0 to 29% under setting [2]; 0 to 29% under setting [3]; 0 to 29% under setting [4]; 60 to 74% under setting [5]; 0 to 29% under setting [6]. The pest or weed control at 140 g/ha lay in the range of 0 to 29% under setting [7]; 0 to 29% under setting [8]; 0 to 29% under setting [9]; 0 to 29% under setting [10]; 45 to 59% under setting [11]; 45 to 59% under setting [12]. The pest or weed control at 140 g/ha lay in the range of 45 to 59% under setting [13], 0 to 29% under setting [14] and 0 to 29% under setting [15].
Regarding `COC(=O)c1nc(-c2ccc(C(F)(F)F)cc2Cl)c(SC)cc1Cl` [F7, methyl 3-chloro-6-(2-chloro-4-(trifluoromethyl)phenyl)-5-(methylthio)picolinate], the pest or weed control at 140 g/ha under setting [1] fell in the range of 0 to 29%; the pest or weed control at 140 g/ha under setting [2] lay within 0 to 29%; the pest or weed control at 140 g/ha under setting [3] fell in the range of 0 to 29%; the pest or weed control at 140 g/ha under setting [4] fell in the range of 0 to 29%; the pest or weed control at 140 g/ha under setting [5] fell in the range of 0 to 29%; the pest or weed control at 140 g/ha under setting [6] lay in the range of 0 to 29%. Further, the pest or weed control at 140 g/ha lay within 0 to 29% under setting [7]; 0 to 29% under setting [8]; 0 to 29% under setting [9]; 0 to 29% under setting [10]; 0 to 29% under setting [11]; 0 to 29% under setting [12]. Further, the pest or weed control at 140 g/ha under setting [13] was in the range of 0 to 29%, the pest or weed control at 140 g/ha under setting [14] was in the range of 0 to 29% and the pest or weed control at 140 g/ha under setting [15] was in the range of 0 to 29%.
